Where two headings read alike, the source gives them in different places. Blank lines part the entries; values can stand above or below the compound they belong to.
Tests used:
[1] = Parallel artificial membrane permeability assay; format: in vitro ADME; details: passive permeability
Eg5 = molecular target: T1, Eg5 (Homo sapiens, UniProt P52732)
T1 sequence (P52732 1-368): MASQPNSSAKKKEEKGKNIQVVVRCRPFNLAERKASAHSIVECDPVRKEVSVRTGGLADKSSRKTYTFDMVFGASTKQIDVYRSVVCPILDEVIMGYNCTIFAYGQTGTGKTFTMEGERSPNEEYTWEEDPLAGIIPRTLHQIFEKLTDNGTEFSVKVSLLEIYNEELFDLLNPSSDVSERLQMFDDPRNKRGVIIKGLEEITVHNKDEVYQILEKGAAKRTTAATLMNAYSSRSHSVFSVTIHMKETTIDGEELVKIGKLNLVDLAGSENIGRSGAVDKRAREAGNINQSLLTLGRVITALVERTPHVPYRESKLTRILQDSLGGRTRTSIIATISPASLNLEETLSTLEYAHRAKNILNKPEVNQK

[2] = Evaluation of acid stability at pH = 1 by LC-HRMS; format: physicochemical; details: for hydrolysis / decomposition at pH 1.0: pH 1.0, in words
log D7.4 = details: n-octanol/buffer, pH 7.4
K562 cells = experiment: cells; format: cell-based; details: Homo sapiens, K562, 72 h
[3] = Human microsomal stability; details: human microsomes, 3 µM
[4] = Mouse microsomal stability; details: mouse microsomes, 3 µM
[5] = Human plasma protein binding, equilibrium dialysis; details: 50%
[6] = Human hepatocyte stability; details: cryopreserved hepatocytes, 3 µM
[7] = log P and pKa, potentiometric method
[8] = calculated from Ki^app of basal ATPase inhibition

PAMPA Papp [1]: no permeability recorded
SMILES: N[C@@H](CSC(c1ccccc1)(c1ccccc1)c1cccc(O)c1)C(=O)O [compound 35, (2 R)-2-Amino-3-(((3-hydroxyphenyl)(diphenyl)methyl)sulfanyl)propanoic acid]

SMILES: NCCSC(c1ccccc1)(c1ccccc1)c1cccc(Cl)c1 [compound 14, 2-(((3-Chlorophenyl)(diphenyl)methyl)sulfanyl)ethanamine]
ligand efficiency (Eg5; [8]): 0.37

SMILES: NCCNC(c1ccccc1)(c1ccccc1)c1ccccc1 [compound 8, N-Tritylethane-1,2-diamine]
ligand efficiency (Eg5): 0.33 | hydrolysis / decomposition at pH 1.0 [2]: completely hydrolyzed

SMILES: COc1cccc(C(SCCN)(c2ccccc2)c2ccccc2)c1 [compound 21, 2-(((3-Methoxyphenyl)(diphenyl)methyl)sulfanyl)ethanamine]
ligand efficiency (Eg5; [8]): 0.37

PAMPA Papp [1]: no membrane diffusion detected | logD (log D7.4): 1.13
SMILES: NC(=O)c1cccc(C(SC[C@H](N)C(=O)O)(c2ccccc2)c2ccccc2)c1 [compound 41, (R)-2-amino-3-(((3-carbamoylphenyl)diphenylmethyl)sulfanyl)propanoic acid]

SMILES: NCCOC(c1ccccc1)(c1ccccc1)c1ccccc1 [compound 6, 2-(Trityloxy)ethanamine]
hydrolysis / decomposition at pH 1.0 [2]: decomposed after 16 h

SMILES: N[C@@H](CSC(c1ccccc1)(c1ccccc1)c1cccc(Cl)c1)C(=O)O [compound 13, (2 R)-2-Amino-3-(((3-chloroxyphenyl)(diphenyl)methyl)sulfanyl)propanoic acid]
ligand efficiency (Eg5; [8]): 0.36

SMILES: NCCSC(c1ccccc1)(c1ccccc1)c1ccccc1 [compound 2, 2-(Tritylsulfanyl)ethanamine]
ligand efficiency (Eg5): 0.39

stability at pH 1.0 ([2]; 5 days at pH 1.0): stable
SMILES: NCCCC(c1ccccc1)(c1ccccc1)c1ccccc1 [compound 10, 4,4,4-Triphenylbutan-1-amine]

SMILES: Cc1ccc(C(CCC(N)C(=O)O)(c2ccccc2)c2ccccc2)cc1 (racemic) [rac-32, 2-Amino-5,5-diphenyl-5-(4-methylphenyl)pentanoic acid]
GI50 (K562 cells; read-out: K562 cells, GI50, 72 h, Alamar blue): 98 ± 5 nM

SMILES: Cc1ccc(C(=O)N(CCCN)[C@@H](c2nc3cc(Cl)ccc3c(=O)n2Cc2ccccc2)C(C)C)cc1 [compound 54, ispinesib, reference compound]
microsomal stability, Clint, human [3]: stable | microsomal stability, Clint, mice [4]: stable | recovery at 5 µM [5]: 50.6%

SMILES: Cc1cccc(C(CC[C@H](N)C(=O)O)(c2ccccc2)c2ccccc2)c1 [(S)-29]
GI50 (K562 cells; read-out: K562 cells, GI50): 128 ± 15 nM | microsomal stability, Clint, human [3]: stable | microsomal stability, Clint, mice [4]: stable | human hepatocytes, intrinsic clearance [6]: stable | pKa ([7]; pKa 1): 9.07 | pKa ([7]; pKa 2): 2.55 | recovery at 5 µM [5]: 52.3%

SMILES: Cc1cccc(C(CC[C@@H](N)C(=O)O)(c2ccccc2)c2ccccc2)c1 [(R)-29]
GI50 (K562 cells; read-out: K562 cells, GI50): 91 ± 9 nM | microsomal stability, Clint, human [3]: stable | microsomal stability, Clint, mice [4]: stable | human hepatocytes, intrinsic clearance [6]: stable | pKa ([7]; pKa 1): 9.07 | pKa ([7]; pKa 2): 2.55 | recovery at 5 µM [5]: 50.1%

SMILES: NCCSC(c1ccccc1)(c1ccccc1)c1cccc(F)c1 [compound 12, 2-(((3-Fluorophenyl)(diphenyl)methyl)sulfanyl)ethanamine]
ligand efficiency (Eg5; [8]): 0.36

t1/2, acid stability ([2]; pH 1.0, 0-24 h, LC-HRMS): stable
SMILES: N[C@@H](CSC(c1ccccc1)(c1ccccc1)c1ccccc1)C(=O)O [compound 1, S-trityl-L-cysteine, reference compound]

SMILES: N[C@@H](CNC(c1ccccc1)(c1ccccc1)c1ccccc1)C(=O)O [compound 7, (2 S)-2-Amino-3-(tritylamino)propanoic acid]
hydrolysis / decomposition at pH 1.0 [2]: completely hydrolyzed

— article PMC3428805 (Journal of Medicinal Chemistry, 2012)
